Data as given in US12138256B2, “Treatment of cardiopulmonary disorders” (Bayer Aktiengesellschaft, priority 2021, dated 2024).
Where two headings read alike, the source gives them in different places.

Key:
[1] = Thermal stability of the solid (90° C., 7 days, HPLC peak areas); format: physicochemical
Experimental: 0.3 mg of the test compound, e.g. comparative example 11 were solved in 0.1 ml dimethylsulfoxide and 0.4 ml acetonitrile. Then 1.0 ml water was added. For complete dissolution the HPLC vial was shaken and sonicated. This solution was immediately analyzed by HPLC (reference at t0). 0.3 mg of the test compound was weighed into another HPLC vial. The vial was capped and stored for 7 days in a heating block at 90° C.
After this time the vial was decapped and 0.1 ml dimethylsulfoxide and 0.4 ml acetonitrile were added to the stressed compound. Then 1.0 ml water was added. For complete dissolution the HPLC vial was shaken and sonicated. The sample was analyzed by HPLC (sample after 1 week). The peak areas in percentage are used for quantification.

[2] = test system: allergen-induced late airway hyperresponsiveness and inflammation in sensitized mice; experiment: Chronic asthma model: ovalbumin sensitized BALB/c mice, airway hyperresponsiveness and BAL (C-3.3); format: in vivo, mouse; conditions: for inhibition at 0.1 mg/kg: Mus musculus, dexamethasone 18 h and 1 h before each Ova challenge, comparative example 11 high dose of 100 μg/kg 2 h before
Experimental: The study was conducted to investigate whether inhalative treatment with comparative example 11 has a protective effect on the experimentally allergen-induced late airway hyperresponsiveness and inflammation in sensitized mice. Female BALB/c mice were sensitized and boosted with Ovalbumin (Ova) and aluminium hydroxide adjuvant (day 0. 14 and 21) with the exception of the negative control group receiving NaCl. On day 28 and 29. the animals were challenged with Ova aerosol. On day 30, a hyperresponsiveness test followed by bronchoalveolar lavage (BAL) was performed in all animals of all groups. The treatment groups D (10 μg) and E (100 μg) were treated with comparative example 11 inhalationally 2 h before each Ova challenge. Group A and B, the positive and negative control groups, were treated correspondingly with the vehicle. The Ova-sensitized positive control group A should show the full allergic reaction and, in contrast, the sham-sensitized negative control group B should show no allergic response. As a reference group, the animals of group C were treated inhalative with the corticosteroid dexamethasone but—due to its different mechanism of action—18 h and 1 h before each Ova challenge (on day 27, 28 and 29). On day 30, 24 h after Ova challenge in the late allergic phase, lung function—especially RL—was measured in the orotracheally intubated mice and a test on airway hyperresponsiveness was performed (inhalational methacholine provocation in doubling dose steps). […] These inhibitory effects show the successful therapeutic intervention.

## O=C(O)c1ccc(CCN(CCc2ccccc2OCc2ccc(-c3nc4cc(C(F)(F)F)ccc4o3)cc2)C2CCCc3nc(C(=O)O)ccc32)cc1 (single isomer, unassigned) [comparative example 6, 5-([2-(4-carboxyphenyl)ethyl]{2-[2-({4-[5-(trifluoromethyl)-1,3-benzoxazol-2-yl]benzyl}oxy)phenyl]-ethyl}amino)-5,6,7,8-tetrahydroquinoline-2-carboxylic acid]
[1]
  thermal stability: limited thermal stability

## O=C(O)CCCCN(CCc1ccccc1OCc1ccc(-c2nc3cc(C(F)(F)F)ccc3o2)cc1)C1CCCc2nc(C(=O)O)ccc21 (single isomer, unassigned) [comparative example 7, 5-[(4-carboxybutyl)(2-[2-({4-[5-(trifluoromethyl)-1,3-benzoxazol-2-yl]benzyl}oxy)phenyl]ethyl)amino]-5,6,7,8-tetrahydroquinoline-2-carboxylic acid]
[1]
  thermal stability: limited thermal stability

## O=C(O)CCCCN(CCc1ccccc1OCc1ccc(-c2nc3cc(OC(F)(F)F)ccc3o2)cc1)C1CCCc2nc(C(=O)O)ccc21 (single isomer, unassigned) [comparative example 8, 5-[(4-carboxybutyl){2-[2-({4-[5-(trifluoromethoxy)-1,3-benzoxazol-2-yl]benzyl}oxy)phenyl]ethyl}-amino]-5,6,7,8-tetrahydroquinoline-2-carboxylic acid]
[1]
  thermal stability: limited thermal stability

## O=C(O)c1ccc(CCN(CCc2ccccc2OCc2ccc(-c3nc4cc(OC(F)(F)F)ccc4o3)cc2)C2CCCc3nc(C(=O)O)ccc32)cc1 (single isomer, unassigned) [comparative example 9, 5-([2-(4-carboxyphenyl)ethyl]{2-[2-({4-[5-(trifluoromethoxy)-1,3-benzoxazol-2-yl]benzyl}oxy)-phenyl]ethyl}amino)-5,6,7,8-tetrahydroquinoline-2-carboxylic acid]
[1]
  thermal stability: limited thermal stability

## N#Cc1ccc2oc(-c3ccc(COc4ccccc4CCN(CCCCC(=O)O)C4CCCc5nc(C(=O)O)ccc54)cc3)nc2c1 (single isomer, unassigned) [comparative example 10, 5-{(4-carboxybutyl)[2-(2-{[4-(5-cyano-1,3-benzoxazol-2-yl)benzyl]oxy}phenyl)ethyl]amino}-5,6,7,8-tetrahydroquinoline-2-carboxylic acid]
[1]
  thermal stability: limited thermal stability

## C[C@@H]1C[C@H]2[C@@H]3CCC4=CC(=O)C=C[C@]4(C)[C@@]3(F)[C@@H](O)C[C@]2(C)[C@@]1(O)C(=O)CO [dexamethasone, reference compound]
[2]; read-out: inhibition of the airway hyperresponsiveness (ED100)
  inhibition at 0.1 mg/kg: 89%
[2]; read-out: inhibition of the airway hyperresponsiveness (ED150)
  inhibition at 0.1 mg/kg: 70%
[2]; dexamethasone inhalative
  inhibition of the eosinophilic influx: 100%
